Experiments:
Type in all cases: binding
[1] = biological target: kinases (KINOMEscan panel) (Homo sapiens, UniProt O43683); conditions: kinase BUB1; NEW KINOMEscan
[2] = biological target: kinases (KINOMEscan panel) (Homo sapiens, UniProt P00519, F317L); conditions: NEW KINOMEscan; for KINOMEscan ABL1(F317L)-phosphorylated: kinase ABL1(F317L)-phosphorylated
[3] = biological target: kinases (KINOMEscan panel) (Homo sapiens, UniProt P07333); conditions: NEW KINOMEscan
[4] = biological target: kinases (KINOMEscan panel) (Homo sapiens, UniProt P10721, A829P); conditions: NEW KINOMEscan
Chain of kinases (KINOMEscan panel) (Homo sapiens, UniProt P10721, A829P) (P10721 26-976 A829P): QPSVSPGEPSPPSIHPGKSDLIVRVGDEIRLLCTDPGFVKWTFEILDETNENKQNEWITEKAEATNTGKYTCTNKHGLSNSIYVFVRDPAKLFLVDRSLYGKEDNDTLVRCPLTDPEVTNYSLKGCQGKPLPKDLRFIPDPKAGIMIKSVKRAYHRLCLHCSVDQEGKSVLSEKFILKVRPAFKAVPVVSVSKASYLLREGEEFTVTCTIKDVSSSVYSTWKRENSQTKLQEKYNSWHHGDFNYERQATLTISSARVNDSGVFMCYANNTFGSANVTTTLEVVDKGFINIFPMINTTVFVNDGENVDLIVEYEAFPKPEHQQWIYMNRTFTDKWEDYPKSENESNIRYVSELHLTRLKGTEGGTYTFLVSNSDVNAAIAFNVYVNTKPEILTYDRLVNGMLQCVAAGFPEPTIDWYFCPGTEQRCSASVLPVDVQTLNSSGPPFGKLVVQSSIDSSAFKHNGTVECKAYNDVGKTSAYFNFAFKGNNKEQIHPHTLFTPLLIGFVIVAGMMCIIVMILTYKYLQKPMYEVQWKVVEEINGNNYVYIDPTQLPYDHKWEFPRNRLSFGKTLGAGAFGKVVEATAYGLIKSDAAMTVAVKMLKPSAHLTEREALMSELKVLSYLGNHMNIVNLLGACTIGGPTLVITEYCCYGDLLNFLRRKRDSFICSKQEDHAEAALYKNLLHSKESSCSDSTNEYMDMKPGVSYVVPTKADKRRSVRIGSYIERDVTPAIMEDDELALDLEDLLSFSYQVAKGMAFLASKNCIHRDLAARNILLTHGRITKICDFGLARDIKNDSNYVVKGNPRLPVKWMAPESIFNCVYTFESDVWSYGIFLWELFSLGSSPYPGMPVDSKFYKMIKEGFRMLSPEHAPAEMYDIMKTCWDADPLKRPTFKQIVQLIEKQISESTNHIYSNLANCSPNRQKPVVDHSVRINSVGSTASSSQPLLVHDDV

[5] = biological target: kinases (KINOMEscan panel) (Homo sapiens, UniProt P10721, V559D/V654A); conditions: kinase KIT(V559D,V654A); NEW KINOMEscan
Chain of kinases (KINOMEscan panel) (Homo sapiens, UniProt P10721, V559D/V654A) (P10721 26-976 V559D/V654A): as the sequence (P10721 26-976 A829P) above, with V534D, V629A, P804A counted along it

[6] = biological target: kinases (KINOMEscan panel) (Homo sapiens, UniProt P17948); conditions: kinase FLT1; NEW KINOMEscan
[7] = biological target: T1, kinases (KINOMEscan panel) (Homo sapiens, UniProt P29320); conditions: kinase EPHA3; NEW KINOMEscan
T1 sequence (P29320 21-983): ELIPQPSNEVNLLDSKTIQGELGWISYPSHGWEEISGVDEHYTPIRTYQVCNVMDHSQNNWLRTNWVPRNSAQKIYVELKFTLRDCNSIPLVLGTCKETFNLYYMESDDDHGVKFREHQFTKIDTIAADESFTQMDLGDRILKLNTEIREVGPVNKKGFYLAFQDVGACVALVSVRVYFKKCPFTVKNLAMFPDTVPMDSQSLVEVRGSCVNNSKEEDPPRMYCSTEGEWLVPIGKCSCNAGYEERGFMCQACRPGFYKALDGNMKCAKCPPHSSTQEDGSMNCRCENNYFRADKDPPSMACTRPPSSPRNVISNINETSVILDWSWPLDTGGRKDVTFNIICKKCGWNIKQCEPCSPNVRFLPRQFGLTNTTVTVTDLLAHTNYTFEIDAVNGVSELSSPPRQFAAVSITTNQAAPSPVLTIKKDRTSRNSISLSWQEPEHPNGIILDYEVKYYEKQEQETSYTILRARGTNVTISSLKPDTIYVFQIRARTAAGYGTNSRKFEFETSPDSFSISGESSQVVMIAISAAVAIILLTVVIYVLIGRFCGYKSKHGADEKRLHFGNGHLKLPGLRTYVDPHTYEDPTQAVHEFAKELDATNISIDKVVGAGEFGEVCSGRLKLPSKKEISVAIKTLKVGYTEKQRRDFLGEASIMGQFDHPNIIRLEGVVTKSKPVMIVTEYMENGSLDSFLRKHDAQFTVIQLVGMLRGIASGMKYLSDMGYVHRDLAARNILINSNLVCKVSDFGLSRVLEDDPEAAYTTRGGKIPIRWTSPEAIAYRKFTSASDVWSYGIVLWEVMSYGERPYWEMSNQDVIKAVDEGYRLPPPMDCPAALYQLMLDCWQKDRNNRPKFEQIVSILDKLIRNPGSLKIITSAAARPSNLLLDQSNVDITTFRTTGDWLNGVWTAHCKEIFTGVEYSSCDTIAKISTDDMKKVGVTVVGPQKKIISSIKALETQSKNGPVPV

[8] = biological target: kinases (KINOMEscan panel) (Homo sapiens, UniProt P51617); conditions: kinase IRAK1; NEW KINOMEscan
[9] = biological target: kinases (KINOMEscan panel) (Homo sapiens, UniProt P80192); conditions: NEW KINOMEscan
[10] = biological target: kinases (KINOMEscan panel) (Homo sapiens, UniProt Q13554); conditions: kinase CAMK2B; NEW KINOMEscan
[11] = biological target: kinases (KINOMEscan panel) (Homo sapiens, UniProt Q16513); conditions: kinase PKN2; NEW KINOMEscan
[12] = biological target: kinases (KINOMEscan panel) (Homo sapiens, UniProt Q8TDX7); conditions: NEK7; NEW KINOMEscan
[13] = biological target: T2, kinases (KINOMEscan panel) (Homo sapiens, UniProt Q9BRS2); conditions: RIOK1; NEW KINOMEscan
T2 sequence (Q9BRS2 1-568): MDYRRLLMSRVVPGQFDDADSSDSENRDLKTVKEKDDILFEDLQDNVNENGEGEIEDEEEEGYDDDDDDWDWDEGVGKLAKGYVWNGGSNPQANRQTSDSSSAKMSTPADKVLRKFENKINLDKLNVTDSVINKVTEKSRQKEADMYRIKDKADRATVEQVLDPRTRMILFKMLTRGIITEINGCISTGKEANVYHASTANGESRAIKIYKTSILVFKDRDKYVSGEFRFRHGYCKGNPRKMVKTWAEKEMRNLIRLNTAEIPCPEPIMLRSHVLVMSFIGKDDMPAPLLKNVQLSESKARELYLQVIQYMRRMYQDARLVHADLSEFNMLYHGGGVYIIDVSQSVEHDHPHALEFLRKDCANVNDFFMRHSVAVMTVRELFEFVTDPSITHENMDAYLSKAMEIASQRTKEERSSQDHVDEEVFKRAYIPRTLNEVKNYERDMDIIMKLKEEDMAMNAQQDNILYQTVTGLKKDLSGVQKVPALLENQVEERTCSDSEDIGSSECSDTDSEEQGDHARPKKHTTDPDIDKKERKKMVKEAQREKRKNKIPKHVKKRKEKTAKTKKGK

[14] = biological target: kinases (KINOMEscan panel) (Homo sapiens, UniProt Q9Y4K4); conditions: kinase MAP4K5; NEW KINOMEscan
Chain of kinases (KINOMEscan panel) (Homo sapiens, UniProt Q9Y4K4) (Q9Y4K4 whole entry): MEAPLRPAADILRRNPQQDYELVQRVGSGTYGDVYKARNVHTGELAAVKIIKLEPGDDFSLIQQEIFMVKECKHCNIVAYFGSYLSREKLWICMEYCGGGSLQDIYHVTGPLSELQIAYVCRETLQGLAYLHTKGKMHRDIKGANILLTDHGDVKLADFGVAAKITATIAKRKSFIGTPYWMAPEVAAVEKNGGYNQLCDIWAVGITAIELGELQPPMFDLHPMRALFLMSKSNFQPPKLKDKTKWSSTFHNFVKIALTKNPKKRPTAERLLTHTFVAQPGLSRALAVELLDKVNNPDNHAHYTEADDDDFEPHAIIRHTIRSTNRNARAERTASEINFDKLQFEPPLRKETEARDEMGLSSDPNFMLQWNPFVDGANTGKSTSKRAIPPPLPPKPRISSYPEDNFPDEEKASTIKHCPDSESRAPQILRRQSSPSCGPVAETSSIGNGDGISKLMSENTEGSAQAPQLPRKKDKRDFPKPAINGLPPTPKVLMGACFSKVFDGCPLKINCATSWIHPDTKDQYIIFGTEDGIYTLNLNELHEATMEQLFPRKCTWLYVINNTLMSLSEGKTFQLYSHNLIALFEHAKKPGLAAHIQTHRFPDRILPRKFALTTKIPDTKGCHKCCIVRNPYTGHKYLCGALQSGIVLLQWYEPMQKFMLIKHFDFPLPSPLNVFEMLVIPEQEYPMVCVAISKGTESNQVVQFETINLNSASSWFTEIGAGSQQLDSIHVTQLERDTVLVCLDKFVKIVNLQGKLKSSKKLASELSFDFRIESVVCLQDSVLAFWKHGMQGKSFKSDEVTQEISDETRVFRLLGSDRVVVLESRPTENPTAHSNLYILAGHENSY

[15] = biological target: kinases (KINOMEscan panel) (Plasmodium falciparum, UniProt P61075); conditions: PFPK5(P.falciparum); NEW KINOMEscan

Chain of kinases (KINOMEscan panel) (Homo sapiens, UniProt P00519, F317L) (P00519 whole entry F317L): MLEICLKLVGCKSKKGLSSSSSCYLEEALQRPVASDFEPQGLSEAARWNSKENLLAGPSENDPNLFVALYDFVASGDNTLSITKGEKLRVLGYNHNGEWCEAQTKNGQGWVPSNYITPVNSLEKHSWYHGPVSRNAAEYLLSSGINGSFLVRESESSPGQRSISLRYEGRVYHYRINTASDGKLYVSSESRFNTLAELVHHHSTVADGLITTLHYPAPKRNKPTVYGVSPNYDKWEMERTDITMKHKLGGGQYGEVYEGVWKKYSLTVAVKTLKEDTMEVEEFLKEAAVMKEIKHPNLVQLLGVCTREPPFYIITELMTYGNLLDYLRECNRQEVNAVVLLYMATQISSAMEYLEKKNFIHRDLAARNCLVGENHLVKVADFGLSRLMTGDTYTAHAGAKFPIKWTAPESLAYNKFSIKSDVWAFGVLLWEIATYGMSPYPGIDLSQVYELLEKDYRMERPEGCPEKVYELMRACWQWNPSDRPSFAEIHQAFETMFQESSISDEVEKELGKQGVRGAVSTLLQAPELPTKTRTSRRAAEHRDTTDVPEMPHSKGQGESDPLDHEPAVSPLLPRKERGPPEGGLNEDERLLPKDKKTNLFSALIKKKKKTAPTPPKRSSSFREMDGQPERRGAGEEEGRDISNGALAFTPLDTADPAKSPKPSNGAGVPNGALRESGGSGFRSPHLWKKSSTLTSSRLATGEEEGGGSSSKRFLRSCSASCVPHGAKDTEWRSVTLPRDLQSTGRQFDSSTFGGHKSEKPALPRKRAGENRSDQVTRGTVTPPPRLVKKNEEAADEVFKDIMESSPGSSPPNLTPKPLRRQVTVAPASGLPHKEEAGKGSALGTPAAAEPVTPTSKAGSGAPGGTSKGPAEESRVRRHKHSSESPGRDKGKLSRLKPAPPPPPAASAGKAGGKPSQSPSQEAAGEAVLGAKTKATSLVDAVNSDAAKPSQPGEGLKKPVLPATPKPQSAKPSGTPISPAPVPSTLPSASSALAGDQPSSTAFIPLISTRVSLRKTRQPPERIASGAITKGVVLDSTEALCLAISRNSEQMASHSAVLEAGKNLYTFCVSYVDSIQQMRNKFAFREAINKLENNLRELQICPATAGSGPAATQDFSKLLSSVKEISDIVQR
Chain of kinases (KINOMEscan panel) (Homo sapiens, UniProt P07333) (P07333 20-972): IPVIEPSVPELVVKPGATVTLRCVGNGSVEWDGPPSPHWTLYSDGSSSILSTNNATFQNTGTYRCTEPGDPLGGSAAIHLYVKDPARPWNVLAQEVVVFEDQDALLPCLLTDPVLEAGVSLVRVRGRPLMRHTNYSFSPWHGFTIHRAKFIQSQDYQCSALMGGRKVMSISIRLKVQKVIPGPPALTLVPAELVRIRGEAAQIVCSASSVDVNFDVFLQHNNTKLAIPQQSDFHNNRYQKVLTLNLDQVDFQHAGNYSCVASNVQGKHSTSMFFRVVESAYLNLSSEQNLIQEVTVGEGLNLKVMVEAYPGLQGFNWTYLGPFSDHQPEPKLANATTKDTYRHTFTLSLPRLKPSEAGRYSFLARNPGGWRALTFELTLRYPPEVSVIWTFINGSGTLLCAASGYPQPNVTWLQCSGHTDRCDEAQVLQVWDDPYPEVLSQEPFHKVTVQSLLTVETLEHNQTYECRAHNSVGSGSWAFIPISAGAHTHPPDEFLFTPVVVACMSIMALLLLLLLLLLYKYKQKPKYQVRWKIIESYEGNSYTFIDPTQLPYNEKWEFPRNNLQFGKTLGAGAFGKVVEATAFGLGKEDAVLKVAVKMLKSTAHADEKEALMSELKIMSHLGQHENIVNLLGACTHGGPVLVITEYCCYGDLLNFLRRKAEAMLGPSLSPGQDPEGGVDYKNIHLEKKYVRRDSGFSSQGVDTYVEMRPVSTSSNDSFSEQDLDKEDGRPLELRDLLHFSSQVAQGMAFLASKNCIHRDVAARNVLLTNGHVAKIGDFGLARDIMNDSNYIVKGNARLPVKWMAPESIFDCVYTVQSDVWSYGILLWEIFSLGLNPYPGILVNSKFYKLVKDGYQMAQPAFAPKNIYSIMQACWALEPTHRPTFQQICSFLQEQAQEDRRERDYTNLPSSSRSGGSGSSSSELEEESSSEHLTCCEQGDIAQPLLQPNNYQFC
Chain of kinases (KINOMEscan panel) (Homo sapiens, UniProt O43683) (O43683 whole entry): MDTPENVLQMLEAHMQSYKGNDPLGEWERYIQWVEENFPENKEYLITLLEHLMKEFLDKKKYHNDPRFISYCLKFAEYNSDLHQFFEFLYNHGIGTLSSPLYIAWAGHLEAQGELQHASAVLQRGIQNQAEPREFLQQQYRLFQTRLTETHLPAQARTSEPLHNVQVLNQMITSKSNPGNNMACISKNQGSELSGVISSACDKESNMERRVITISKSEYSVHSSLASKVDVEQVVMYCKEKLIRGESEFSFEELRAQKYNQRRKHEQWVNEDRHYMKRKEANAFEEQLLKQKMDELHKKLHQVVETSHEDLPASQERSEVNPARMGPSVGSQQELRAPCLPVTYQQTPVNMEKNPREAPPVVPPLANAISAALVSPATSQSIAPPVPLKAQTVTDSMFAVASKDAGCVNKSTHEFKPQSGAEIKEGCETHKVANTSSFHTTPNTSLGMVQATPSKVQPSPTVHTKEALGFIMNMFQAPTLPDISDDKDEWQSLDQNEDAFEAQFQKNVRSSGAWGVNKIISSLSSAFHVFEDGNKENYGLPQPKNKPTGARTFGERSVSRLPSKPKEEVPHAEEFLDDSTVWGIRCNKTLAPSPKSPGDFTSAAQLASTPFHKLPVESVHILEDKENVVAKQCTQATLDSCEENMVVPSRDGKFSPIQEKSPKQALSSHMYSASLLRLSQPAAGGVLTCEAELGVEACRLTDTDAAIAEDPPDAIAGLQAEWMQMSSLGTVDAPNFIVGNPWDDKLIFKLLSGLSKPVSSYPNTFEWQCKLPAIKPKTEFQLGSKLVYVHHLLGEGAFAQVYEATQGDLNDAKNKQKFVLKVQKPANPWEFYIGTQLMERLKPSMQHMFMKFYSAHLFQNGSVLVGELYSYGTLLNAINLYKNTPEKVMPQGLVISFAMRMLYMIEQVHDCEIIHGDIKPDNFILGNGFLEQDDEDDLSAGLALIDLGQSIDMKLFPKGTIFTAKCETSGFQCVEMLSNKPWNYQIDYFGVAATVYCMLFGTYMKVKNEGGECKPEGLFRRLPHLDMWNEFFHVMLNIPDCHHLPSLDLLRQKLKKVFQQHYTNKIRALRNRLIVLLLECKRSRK

Structure (SMILES) | KINOMEscan BUB1 [1] | KINOMEscan ABL1(F317L)-nonphosphorylated [2] | KINOMEscan ABL1(F317L)-phosphorylated [2] | KINOMEscan CSF1R [3] | KINOMEscan CSF1R-autoinhibited [3] | KINOMEscan KIT(A829P) [4] | KINOMEscan KIT(V559D,V654A) [5] | KINOMEscan FLT1 [6] | KINOMEscan EPHA3 [7] | KINOMEscan IRAK1 [8] | KINOMEscan MAP3K9 [9] | KINOMEscan CAMK2B [10] | KINOMEscan PKN2 [11] | KINOMEscan NEK7 [12] | KINOMEscan RIOK1 [13] | KINOMEscan MAP4K5 [14] | KINOMEscan PFPK5(P.falciparum) [15]
Cc1cccc(-c2nc(N(C)c3ccc4ncsc4c3)c3ccccc3n2)n1 [NK-161] | 0 | 18 | 0 | 18 | 26 | 19 | 4 | 12 | 0 | 0 | 27 | 0 | 0 | 0 | 0 | 0 | 0
Cc1cccc(-c2nc(Nc3ccc4nn(C)cc4c3)c3ccccc3n2)n1 [NK167] | 0 | 30 | 0 | 16 | 0 | 0 | 15 | 4 | 0 | 0 | 11 | 0 | 0 | 0 | 1 | 0 | 0

From paper PMC9851200, “Multiparameter phenotypic screening for endogenous TFEB and TFE3 translocation identifies novel chemical series modulating lysosome function” (Autophagy, 2022)
